Source: patent US9687453B2, “Solid pharmaceutical composition” (KYORIN PHARMACEUTICAL CO., LTD., priority 2013, dated 2017)

Experiment: pH of acidic substance (2.5% liquid in water, pH meter)
Format: physicochemical
Details: 50 mg in 1,950 μL of water (concentration 2.5%)
Experimental: The “acidic substance” described herein is a substance which is dissolved in water to generate hydrogen ions.

With `Cl.N[C@@H](CCC(=O)O)C(=O)O` [L-glutamic acid hydrochloride] the pH was at most 3.5.
